Measurements as given in the NIST ThermoML archive (doi:10.1021/je5004719).

Assay: xn = mol fraction of the nth substance listed
Conditions: 101 kPa, Liquid; for speed of sound: Sing-around technique in a fixed-path interferometer; for mass density: Vibrating tube method

Cc1ccccc1Cl [2-chlorotoluene] + Cc1ccccc1C
Conditions | mass density, 298.15 K [kg/m3] | mass density, 303.15 K [kg/m3] | mass density, 308.15 K [kg/m3] | speed of sound, 298.15 K [m/s] | speed of sound, 303.15 K [m/s] | speed of sound, 308.15 K [m/s]
x1 = 0.0872 | 893.06 | 888.78 | 884.5 | 1341.6 | 1321.9 | 1302.1
x1 = 0.1276 | 901.04 | 896.73 | 892.42 | 1339.4 | 1319.8 | 1300.2
x1 = 0.1754 | 910.51 | 906.16 | 901.82 | 1337 | 1317.4 | 1298
x1 = 0.2243 | 920.22 | 915.84 | 911.46 | 1334.4 | 1315 | 1295.6
x1 = 0.2765 | 930.61 | 926.19 | 921.78 | 1331.8 | 1312.4 | 1293.1
x1 = 0.3241 | 940.11 | 935.66 | 931.22 | 1329.4 | 1310.1 | 1290.8
x1 = 0.3762 | 950.54 | 946.05 | 941.57 | 1326.8 | 1307.6 | 1288.4
x1 = 0.4216 | 959.64 | 955.13 | 950.62 | 1324.6 | 1305.4 | 1286.3
x1 = 0.4932 | 974.04 | 969.48 | 964.92 | 1321.2 | 1302.1 | 1283.1
x1 = 0.5243 | 980.31 | 975.73 | 971.15 | 1319.7 | 1300.7 | 1281.8
x1 = 0.5721 | 989.96 | 985.35 | 980.74 | 1317.5 | 1298.6 | 1279.8
x1 = 0.6158 | 998.81 | 994.17 | 989.52 | 1315.5 | 1296.7 | 1278
x1 = 0.6761 | 1011 | 1006.4 | 1001.7 | 1312.7 | 1294.1 | 1275.6
x1 = 0.7245 | 1020.9 | 1016.2 | 1011.4 | 1310.6 | 1292.1 | 1273.7
x1 = 0.7865 | 1033.5 | 1028.8 | 1024 | 1307.8 | 1289.6 | 1271.3
x1 = 0.8254 | 1041.5 | 1036.7 | 1031.9 | 1306.1 | 1288 | 1269.8
x1 = 0.8795 | 1052.5 | 1047.7 | 1042.9 | 1303.8 | 1285.8 | 1267.7
x1 = 0.9192 | 1060.7 | 1055.9 | 1051 | 1302.1 | 1284.1 | 1266.1

C1CCOCC1 [tetrahydropyran] + c1ccccc1
Conditions | mass density, 298.15 K [kg/m3] | mass density, 303.15 K [kg/m3] | speed of sound, 298.15 K [m/s] | speed of sound, 303.15 K [m/s]
x1 = 0.0789 | 874.6 | 869.25 | 1298.9 | 1274
x1 = 0.1324 | 875.21 | 869.87 | 1298.2 | 1272.5
x1 = 0.1784 | 875.68 | 870.35 | 1297.5 | 1271.2
x1 = 0.2239 | 876.1 | 870.78 | 1296.6 | 1269.8
x1 = 0.2876 | 876.63 | 871.32 | 1295.2 | 1267.9
x1 = 0.3276 | 876.92 | 871.63 | 1294.2 | 1266.7
x1 = 0.3769 | 877.26 | 871.97 | 1292.9 | 1265.2
x1 = 0.4285 | 877.58 | 872.3 | 1291.4 | 1263.6
x1 = 0.4794 | 877.87 | 872.59 | 1289.8 | 1262
x1 = 0.5598 | 878.27 | 872.99 | 1287.2 | 1259.6
x1 = 0.6024 | 878.46 | 873.17 | 1285.8 | 1258.3
x1 = 0.6534 | 878.66 | 873.37 | 1284 | 1256.9
x1 = 0.7006 | 878.82 | 873.53 | 1282.3 | 1255.5
x1 = 0.7432 | 878.95 | 873.65 | 1280.7 | 1254.2
x1 = 0.7943 | 879.07 | 873.77 | 1278.8 | 1252.8
x1 = 0.8213 | 879.12 | 873.83 | 1277.7 | 1252
x1 = 0.8763 | 879.18 | 873.92 | 1275.4 | 1250.4
x1 = 0.9148 | 879.2 | 873.96 | 1273.7 | 1249.3

Cc1ccccc1Cl [2-chlorotoluene] + Cc1ccccc1
Conditions | mass density, 298.15 K [kg/m3] | mass density, 303.15 K [kg/m3] | mass density, 308.15 K [kg/m3] | speed of sound, 298.15 K [m/s] | speed of sound, 303.15 K [m/s] | speed of sound, 308.15 K [m/s]
x1 = 0.0935 | 884.2 | 879.51 | 874.8 | 1302 | 1281.3 | 1260.6
x1 = 0.1346 | 893.74 | 889.04 | 884.33 | 1301.2 | 1280.6 | 1260.2
x1 = 0.1681 | 901.47 | 896.76 | 892.04 | 1300.5 | 1280.2 | 1259.9
x1 = 0.2393 | 917.7 | 912.99 | 908.26 | 1299.5 | 1279.4 | 1259.3
x1 = 0.2782 | 926.47 | 921.75 | 917.02 | 1299 | 1279 | 1259
x1 = 0.3342 | 938.97 | 934.25 | 929.51 | 1298.5 | 1278.7 | 1258.8
x1 = 0.3871 | 950.65 | 945.92 | 941.17 | 1298.1 | 1278.5 | 1258.7
x1 = 0.4375 | 961.66 | 956.92 | 952.17 | 1297.9 | 1278.3 | 1258.7
x1 = 0.4872 | 972.41 | 967.66 | 962.89 | 1297.7 | 1278.3 | 1258.8
x1 = 0.5312 | 981.84 | 977.07 | 972.3 | 1297.6 | 1278.3 | 1259
x1 = 0.5912 | 994.55 | 989.78 | 984.99 | 1297.4 | 1278.4 | 1259.3
x1 = 0.6218 | 1001 | 996.2 | 991.4 | 1297.4 | 1278.5 | 1259.5
x1 = 0.6753 | 1012.1 | 1007.3 | 1002.5 | 1297.4 | 1278.7 | 1260
x1 = 0.7231 | 1022 | 1017.2 | 1012.3 | 1297.4 | 1278.9 | 1260.4
x1 = 0.7854 | 1034.7 | 1029.9 | 1025 | 1297.6 | 1279.2 | 1261
x1 = 0.8351 | 1044.7 | 1039.9 | 1035 | 1297.7 | 1279.5 | 1261.5
x1 = 0.8824 | 1054.2 | 1049.3 | 1044.5 | 1297.9 | 1279.8 | 1262
x1 = 0.9231 | 1062.3 | 1057.4 | 1052.5 | 1298.1 | 1280.1 | 1262.3

C1CCOCC1 [tetrahydropyran] + Cc1ccccc1
Conditions | mass density, 298.15 K [kg/m3] | mass density, 303.15 K [kg/m3] | speed of sound, 298.15 K [m/s] | speed of sound, 303.15 K [m/s]
x1 = 0.0834 | 863.93 | 859.19 | 1303.2 | 1281.1
x1 = 0.1245 | 864.77 | 859.99 | 1302.3 | 1280
x1 = 0.1765 | 865.79 | 860.99 | 1301.2 | 1278.7
x1 = 0.2387 | 866.99 | 862.15 | 1299.7 | 1277.1
x1 = 0.3017 | 868.16 | 863.3 | 1298.1 | 1275.3
x1 = 0.3541 | 869.11 | 864.23 | 1296.6 | 1273.8
x1 = 0.4098 | 870.1 | 865.2 | 1295 | 1272.2
x1 = 0.4467 | 870.74 | 865.83 | 1293.9 | 1271
x1 = 0.4915 | 871.51 | 866.59 | 1292.5 | 1269.5
x1 = 0.5487 | 872.47 | 867.53 | 1290.6 | 1267.5
x1 = 0.6008 | 873.33 | 868.36 | 1288.8 | 1265.6
x1 = 0.6472 | 874.08 | 869.09 | 1287.1 | 1263.7
x1 = 0.6954 | 874.84 | 869.83 | 1285.2 | 1261.8
x1 = 0.7321 | 875.41 | 870.38 | 1283.7 | 1260.2
x1 = 0.7832 | 876.18 | 871.13 | 1281.5 | 1257.9
x1 = 0.8241 | 876.78 | 871.71 | 1279.6 | 1255.9
x1 = 0.8937 | 877.76 | 872.65 | 1276.1 | 1252.5
x1 = 0.9205 | 878.12 | 873 | 1274.6 | 1251.1

Cc1ccccc1C [1,2-dimethylbenzene] + C1CCOCC1
Conditions | mass density, 298.15 K [kg/m3] | mass density, 303.15 K [kg/m3] | speed of sound, 298.15 K [m/s] | speed of sound, 303.15 K [m/s]
x2 = 0.0908 | 876.43 | 872.06 | 1345.3 | 1323.7
x2 = 0.1432 | 876.68 | 872.25 | 1343.1 | 1321
x2 = 0.1897 | 876.87 | 872.4 | 1340.4 | 1317.9
x2 = 0.2318 | 877.04 | 872.53 | 1337.4 | 1314.7
x2 = 0.2953 | 877.26 | 872.71 | 1332.1 | 1309.2
x2 = 0.331 | 877.39 | 872.81 | 1328.8 | 1305.9
x2 = 0.3872 | 877.57 | 872.95 | 1323.2 | 1300.4
x2 = 0.4287 | 877.7 | 873.05 | 1319 | 1296.2
x2 = 0.4792 | 877.86 | 873.17 | 1313.7 | 1291
x2 = 0.5187 | 877.99 | 873.26 | 1309.6 | 1286.9
x2 = 0.5725 | 878.16 | 873.38 | 1304.1 | 1281.4
x2 = 0.6182 | 878.31 | 873.48 | 1299.5 | 1276.8
x2 = 0.6682 | 878.47 | 873.58 | 1294.6 | 1272
x2 = 0.7187 | 878.62 | 873.67 | 1290 | 1267.3
x2 = 0.7729 | 878.78 | 873.77 | 1285.3 | 1262.5
x2 = 0.8367 | 878.94 | 873.86 | 1280.2 | 1257.3
x2 = 0.8952 | 879.05 | 873.93 | 1276.1 | 1253.1
x2 = 0.9274 | 879.1 | 873.96 | 1274 | 1251
